In patent US8883963B2 (Cadila Healthcare Limited, priority 2007, dated 2014):

Experiments:
[1] = Stability in simulated gastric fluid; format: in vitro ADME; settings: 2 μM peptidomimetic, simulated gastric fluid pH 1.5, 37° C.; for half-life at 2 μM: read-out: half-life (t1/2) when incubated with simulated gastric fluid
Protocol: (§1) Reactions were terminated by the addition of TFA/H2O (15 mL, 10% (v/v)). […] The column was equilibrated with TFA/H20, at a flow rate of 1 mL/min.

human glucagon receptor = target: T1, human glucagon receptor (Homo sapiens, UniProt P47871); experiment: In vitro human glucagon antagonist activity (inhibition of cAMP production) in CHO/human glucagon R cells; format: cell-based; settings: with saturated concentration of glucagon peptide
T1 construct: The full-length cDNA was cloned in pcDNA3.1 (Invitrogen); expressed in transfected cells

DPP IV = DPP IV (Homo sapiens, UniProt P27487); experiment: Stability against DPP IV enzyme; format: in vitro ADME; settings: 37° C.; for % degradation of peptidomimetics in 24 h when incubated with DPP-IV enzyme: 2 μM peptidomimetic; for half-life at 2 μM: DPP IV enzyme, pH 7.8, 2 μM peptidomimetic, read-out: half-life (t1/2) when incubated with DPP-IV enzyme
Protocol: as §1

[2] = Stability in liver microsomes; format: in vitro ADME; settings: 2 μM peptidomimetic, human liver microsomes, 37° C.; for half-life at 2 μM: pH 7.8, read-out: half-life (t1/2) when incubated with liver microsomes
Protocol: as §1

[3] = Stability in simulated intestinal fluid; format: in vitro ADME; settings: 2 μM peptidomimetic, simulated intestinal fluid pH 7.5, 37° C.; for half-life at 2 μM: read-out: half-life (t1/2) when incubated with simulated intestinal fluid
Protocol: as §1

Human GLP-1 receptor = target: T2, Human GLP-1 receptor (Homo sapiens, UniProt P43220); experiment: In vitro Human GLP-1 R agonist activity (cyclic AMP determination) in CHO/human GLP1R cells; format: cell-based
T2 construct: The full-length cDNA was cloned in pcDNA3.1(+); expressed in transfected cells

[4] = Stability in human plasma; format: in vitro ADME; settings: 2 μM peptidomimetic, pooled human plasma, 37° C.; for half-life at 2 μM: pH 7.8, read-out: half-life (t1/2) when incubated with human plasma
Protocol: as §1

T1 sequence (P47871 26-477): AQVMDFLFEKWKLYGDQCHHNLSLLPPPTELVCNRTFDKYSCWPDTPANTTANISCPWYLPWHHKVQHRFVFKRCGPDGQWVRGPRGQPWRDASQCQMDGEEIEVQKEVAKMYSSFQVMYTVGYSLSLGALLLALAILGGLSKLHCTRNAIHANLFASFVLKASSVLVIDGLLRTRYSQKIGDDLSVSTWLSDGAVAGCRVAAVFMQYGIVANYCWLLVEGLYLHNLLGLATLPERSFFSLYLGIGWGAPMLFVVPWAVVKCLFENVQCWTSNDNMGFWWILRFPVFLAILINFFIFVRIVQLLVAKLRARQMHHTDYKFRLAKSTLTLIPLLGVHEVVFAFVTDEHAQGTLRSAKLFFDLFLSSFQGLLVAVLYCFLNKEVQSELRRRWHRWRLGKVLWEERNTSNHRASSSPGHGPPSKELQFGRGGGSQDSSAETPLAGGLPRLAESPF
T2 sequence (P43220 24-463): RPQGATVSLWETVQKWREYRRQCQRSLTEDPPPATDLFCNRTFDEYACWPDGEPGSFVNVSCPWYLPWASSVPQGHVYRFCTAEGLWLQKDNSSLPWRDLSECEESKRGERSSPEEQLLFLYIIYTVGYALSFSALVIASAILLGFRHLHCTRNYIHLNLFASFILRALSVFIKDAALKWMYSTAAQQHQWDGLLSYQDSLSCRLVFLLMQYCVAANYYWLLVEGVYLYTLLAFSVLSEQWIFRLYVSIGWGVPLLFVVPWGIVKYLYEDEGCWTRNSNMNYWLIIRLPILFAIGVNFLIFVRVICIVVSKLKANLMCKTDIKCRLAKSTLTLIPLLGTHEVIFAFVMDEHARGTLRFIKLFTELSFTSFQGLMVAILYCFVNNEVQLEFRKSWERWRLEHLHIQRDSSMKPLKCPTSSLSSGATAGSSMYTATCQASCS
DPP IV, sequence (P27487 whole entry, species assumed): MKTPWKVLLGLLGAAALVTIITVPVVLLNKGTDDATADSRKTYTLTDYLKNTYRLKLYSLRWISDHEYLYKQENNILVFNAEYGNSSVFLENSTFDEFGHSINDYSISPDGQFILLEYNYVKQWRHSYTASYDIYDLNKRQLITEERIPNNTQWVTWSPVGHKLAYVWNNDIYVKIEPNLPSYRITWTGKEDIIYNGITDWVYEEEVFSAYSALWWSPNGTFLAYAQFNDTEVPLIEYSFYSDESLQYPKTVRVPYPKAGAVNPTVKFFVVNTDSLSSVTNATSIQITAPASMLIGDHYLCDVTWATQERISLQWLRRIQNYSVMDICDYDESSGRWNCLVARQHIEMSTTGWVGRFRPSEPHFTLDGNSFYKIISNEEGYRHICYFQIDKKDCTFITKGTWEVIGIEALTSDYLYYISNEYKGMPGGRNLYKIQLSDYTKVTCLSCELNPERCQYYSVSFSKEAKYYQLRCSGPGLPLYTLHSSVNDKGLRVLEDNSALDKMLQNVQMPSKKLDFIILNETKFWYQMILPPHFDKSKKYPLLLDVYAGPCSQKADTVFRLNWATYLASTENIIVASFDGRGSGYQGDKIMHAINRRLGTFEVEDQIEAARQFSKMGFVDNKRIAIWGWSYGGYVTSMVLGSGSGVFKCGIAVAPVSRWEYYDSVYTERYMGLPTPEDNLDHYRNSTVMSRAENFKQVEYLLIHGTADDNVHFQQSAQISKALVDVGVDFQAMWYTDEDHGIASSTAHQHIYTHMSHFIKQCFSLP

| SMILES | half-life (t1/2) when incubated with simulated gastric fluid [1] | % degradation of peptidomimetics in 24 h when incubated with simulated gastric fluid [1] | Human Glucagon receptor antagonistic activity shown as inhibition of cAMP production of Glucagon peptide (human glucagon receptor; 1 nM test compound) | Human Glucagon receptor antagonistic activity shown as inhibition of cAMP production of Glucagon peptide (human glucagon receptor; 10 nM test compound) | Human Glucagon receptor antagonistic activity shown as inhibition of cAMP production of Glucagon peptide (human glucagon receptor; 100 nM test compound) | Human Glucagon receptor antagonistic activity shown as inhibition of cAMP production of Glucagon peptide (human glucagon receptor; 1 μM test compound) | Human Glucagon receptor antagonistic activity shown as inhibition of cAMP production of Glucagon peptide (human glucagon receptor; 10 μM test compound) | % degradation of peptidomimetics in 24 h when incubated with DPP-IV enzyme (DPP IV) | half-life at 2 μM (DPP IV) | % degradation of peptidomimetics in 24 h when incubated with liver microsomes [2] | half-life at 2 μM [2] | half-life (t1/2) when incubated with simulated intestinal fluid [3] | % degradation of peptidomimetics in 24 h when incubated with simulated intestinal fluid [3] | Human GLP-1 R activity (cAMP release), % activity with respect to control (Human GLP-1 receptor; 1 nM test compound) | Human GLP-1 R activity (cAMP release), % activity with respect to control (Human GLP-1 receptor; 10 nM test compound) | Human GLP-1 R activity (cAMP release), % activity with respect to control (Human GLP-1 receptor; 100 nM test compound) | Human GLP-1 R activity (cAMP release), % activity with respect to control (Human GLP-1 receptor; 1 μM test compound) | Human GLP-1 R activity (cAMP release), % activity with respect to control (Human GLP-1 receptor; 10 μM test compound) | % degradation of peptidomimetics in 24 h when incubated with human plasma [4] | half-life at 2 μM [4] | also measured |
| --- | --- | --- | --- | --- | --- | --- | --- | --- | --- | --- | --- | --- | --- | --- | --- | --- | --- | --- | --- | --- | --- |
| CCc1cc(OC)ccc1-c1ccc(CC(C(=O)N(C)C(CCCc2ccccc2F)C(N)=O)N(C)C(=O)[C@H](CC(=O)O)N(C)C(=O)[C@H](CO)NC(=O)[C@@H](NC(=O)C(C)(Cc2ccccc2F)NC(=O)[C@@H](NC(=O)CNC(=O)C(CCC#N)NC(=O)C(C)(C)NC(=O)[C@@H](N)Cc2c[nH]cn2)[C@H](C)O)[C@H](C)O)cc1 (single isomer, unassigned) [compound 156] | (8) h | 14% | 5 ± 0.01 pmol/ml/μg prt | 2 ± 0.17 pmol/ml/μg prt | 0 pmol/ml/μg prt | 0 pmol/ml/μg prt | 0 pmol/ml/μg prt | 70% | 540 min | 78% | 60 min | (6) h | 40% | 86 ± 0.11% | 99 ± 0.09% | 99 ± 0.06% | 99 ± 0.14% | 99 ± 0.19% | 71% | 480 min | – |
| CCc1cc(OC)ccc1-c1ccc(CC(NC(=O)[C@H](CC(=O)O)NC(=O)[C@H](CO)NC(=O)[C@@H](NC(=O)C(C)(Cc2ccccc2F)NC(=O)[C@@H](NC(=O)CNC(=O)C(CCC#N)NC(=O)C(C)(C)NC(=O)[C@@H](N)Cc2c[nH]cn2)[C@H](C)O)[C@H](C)O)C(=S)NC(CCCc2ccccc2F)C(N)=O)cc1 (single isomer, unassigned) [compound 168] | (8) h | 12% | 21 ± 0.11 pmol/ml/μg prt | 19 ± 0.02 pmol/ml/μg prt | 18 ± 0.07 pmol/ml/μg prt | 18 ± 0.03 pmol/ml/μg prt | 16 ± 0.02 pmol/ml/μg prt | 72% | 540 min | 78% | 60 min | (6) h | 42% | 96 ± 0.09% | 99 ± 0.07% | 99 ± 0.04% | 99 ± 0.01% | 99 ± 0.08% | 70% | 480 min | – |
| CCc1cc(OC)ccc1-c1ccc(CC(NC(=S)[C@H](CC(=O)O)NC(=O)[C@H](CO)NC(=O)[C@@H](NC(=O)C(C)(Cc2ccccc2F)NC(=O)[C@@H](NC(=O)CNC(=O)C(CCC#N)NC(=O)C(C)(C)NC(=O)[C@@H](N)Cc2c[nH]cn2)[C@H](C)O)[C@H](C)O)C(=S)NC(CCCc2ccccc2)C(N)=O)cc1 (single isomer, unassigned) [compound 178] | – | 00% | 0 pmol/ml/μg prt | 0 pmol/ml/μg prt | 0 pmol/ml/μg prt | 0 pmol/ml/μg prt | 0 pmol/ml/μg prt | 00% | > 1440 min | 35% | – | – | 00% | 39 ± 0.12% | 80 ± 0.15% | 86 ± 0.18% | 95 ± 0.03% | 98 ± 0.09% | 00% | > 1440 min | half-life at 2 μM [1]: > 1440 min; half-life (t1/2) when incubated with liver microsomes [2]: (5) h; half-life at 2 μM [3]: > 1440 min |
| CCc1cc(OC)ccc1-c1ccc(CC(CNC(CCCc2ccccc2)C(N)=O)NC[C@H](CC(=O)O)NC(=O)[C@H](CO)NC(=O)[C@@H](NC(=O)C(C)(Cc2ccccc2F)NC(=O)[C@@H](NC(=O)CNC(=O)[C@H](CCC(N)=O)NC(=O)C(C)(C)NC(=O)[C@H](Cc2c[nH]cn2)NC(=O)OC)[C@@H](C)O)[C@@H](C)O)cc1 (single isomer, unassigned) [compound 194] | – | 43% | 18 ± 0.12 pmol/ml/μg prt | 16 ± 0.11 pmol/ml/μg prt | 12 ± 0.13 pmol/ml/μg prt | 8 ± 0.12 pmol/ml/μg prt | 6 ± 0.18 pmol/ml/μg prt | 00% | > 1440 min | 84% | 120 min | – | 00% | 38 ± 0.11% | 77 ± 0.16% | 85 ± 0.11% | 94 ± 0.08% | 97 ± 0.05% | 00% | > 1440 min | half-life at 2 μM [1]: 240 min; half-life at 2 μM [3]: > 1440 min |
